Here are results for 9 compounds from US20130004590A1, “ZINC OXIDE/ACID CONTAINING COMPOSITIONS AND METHODS FOR TREATING AND/OR PREVENTING ENZYMATIC IRRITATION” (priority 2011, published 2013).

Data set [1] relates to trypsin. Description: EnzChek protease assay: trypsin inhibition by mixtures of talc with divalent cation salts. In kind it is biochemical. As to conditions: for Hypothetically calculated additive value of salt and Talc, trypsin inhibition activities (%): Table 3, salt alone plus talc alone (8.55%). Here is the method: The objective of the following experiment was to determine whether and to what extent adding a divalent cation to talc inhibited trypsin activity in an in vitro assay. The inhibition of trypsin-induced cleavage of a fluorescent casein peptide was measured using the EnzChek™ protease assay kit, following manufacturer's instructions (EnzChek™ Protease Assay Kits Product Information, Revised; Molecular Probes, Eugene Oreg.). […] Trypsin working solution (Sigma, St. Louis, Mo., unit/mL) was prepared in digestion buffer provided in the assay kit. Stock solution of BODIPY FL casein (trypsin substrate, mg/mL) was prepared by adding 0.2 mL to the substrate vials (provided in kit), and the final substrate working solution (10 microgram/mL) was prepared by dilution in digestion buffer (pH 7.8). Following incubation of the trypsin, with or without the test materials, with the BODIPY fluorescent casein substrate, at room temperature for one hour, fluorescence was measured (excitation 485 nm/emission 530 nm) using a SpectraMax microtiter plate reader (Molecular Devices Corporation, Sunnyvale, Calif.) and Softmax Pro software (Molecular Devices Corporation). Each experiment was performed in three replicates.

Data set [2] concerns trypsin. Kind of data set: EnzChek protease assay: trypsin inhibition by zinc oxide/acid mixtures and formulations. It counts as biochemical. To be noted: text b137, on Table 5. Here is the method:
Each experiment was performed in three replicates.
For preparations, samples were diluted in 1×PBS at 1:10 ratio and subjected to centrifugation at 13,200 rpm for 1 min using Eppendorf Centrifuge (Model 5415D, Eppendorf AG, Hamburg, Germany) to remove the solid formulation ingredients. The supernatants (50 μl) were used for trypsin inhibitory activity analyses as described above. For preparations, samples were diluted in 10, or 20 or 40% ethanol and subjected to centrifugation at 13,200 rpm for 1 min using Eppendorf Centrifuge (Model 5415D, Eppendorf AG, Hamburg, Germany) to remove the solid formulation ingredients. The supernatants (50 μl) were used for trypsin inhibition assay. Possible effects of ethanol solution (10, 20 or 40% ethanol) on trypsin inhibition activity were tested in the same study and found no significant impact.
For the above study, the results are an average of three independent experiments, wherein the samples, which were diluted at 1:10 ratio in 1×PBS solutions containing 10%, 20% or 40% ethanol, were tested in triplicates. The results are from an average of all conditions at the same dilution.
For the currently available product (i.e., Baby Paste 5.0, Mendelson Pharmaceuticals LLC, Mountainside, N.J.), the results are an average of a single study: sample diluted at 1:10 ratio, in 1×PBS solutions containing 10%, 20% or 40% ethanol, was tested in triplicate. […]

How the values of data set [3] were obtained: The objective of the following experiment was to determine whether and to what extent adding an acid to a formulation containing zinc oxide had on inhibition of trypsin activity in an in vitro assay. The inhibition of trypsin-induced cleavage of a fluorescent casein peptide was measured using the EnzChek™ protease assay kit, following manufacturer's instructions (EnzChek™ Protease Assay Kits Product Information, Revised; Molecular Probes, Eugene Oreg.). Briefly, mixtures of zinc oxide and acid at different concentrations were prepared in 1×PBS (pH 7.4) and their pH was recorded as listed in the Tables 5-8. Trypsin working solution (Sigma, St. Louis, Mo., unit/mL) was prepared in digestion buffer provided in the assay kit. Stock solution of BODIPY FL casein (trypsin substrate, mg/mL) was prepared by adding 0.2 mL to the substrate vials (provided in kit), and the final substrate working solution (10 microgram/mL) was prepared by dilution in digestion buffer (pH 7.8). Following incubation of the trypsin, with or without the test materials (50 μl), with the BODIPY fluorescent casein substrate, at room temperature for one hour, fluorescence was measured (excitation 485 nm/emission 530 nm) using a SpectraMax microtiter plate reader (Molecular Devices Corporation, Sunnyvale, Calif.) and Softmax Pro software (Molecular Devices Corporation). Each experiment was performed in three replicates.

Where two headings read alike, the source gives them in different places.

Consider `CC(=O)[O-].CC(=O)[O-].O.O.O.O.[Mg+2]` [Magnesium acetate tetrahydrate], for which the “Hypothetically calculated additive value of salt and Talc, trypsin inhibition activities (%)” value with trypsin [1] was 9.38%.
On to `[O]=[Zn]` [ZnO, zinc oxide], for which, in the data set with trypsin [2], the “protease activity of zinc oxide, in words” value was “minimal protease activity”. Moreover, the pH amounted to 7.28 in data set [3] (0.1% ZnO, 0.01% acetic acid in 1x PBS); 6.03 in data set [3] (0.1% ZnO, 0.05% acetic acid in 1x PBS); 7.61 in data set [3] (0.1% ZnO, No acetic acid in 1x PBS); 7.85 in data set [3] (1% ZnO, 0.01% acetic acid in 1x PBS); 6.08 in data set [3] (1% ZnO, 0.05% acetic acid in 1x PBS); 8.07 in data set [3] (1% ZnO, No acetic acid in 1x PBS).
Take `CC(=O)O` [acetic acid]: the pH stood at 6.84 in data set [3] (No ZnO, 0.01% acetic acid in 1x PBS) and 4.75 in data set [3] (No ZnO, 0.05% acetic acid in 1x PBS).
Take `[Cl-].[Cl-].[Zn+2]` [Zinc chloride]: the “Hypothetically calculated additive value of salt and Talc, trypsin inhibition activities (%)” value with trypsin [1] is 89.62%.
On to `CC(=O)[O-].CC(=O)[O-].[Zn+2]` [Zinc acetate dihydrate], for which, in the data set with trypsin [1], the “Hypothetically calculated additive value of salt and Talc, trypsin inhibition activities (%)” value is given as 71.39%.
The same measure, in the same setting: under `O.O.O.O.[Cl][Fe][Cl]` [Iron (II) chloride tetrahydrate] stands 73.62%; under `CC(=O)[O-].CC(=O)[O-].O.[Ca+2]` [Calcium acetate monohydrate], 23.86%.
Still for that read-out and setting: under `[Ca+2].[Cl-].[Cl-]` [Calcium chloride] stands 26.50%.
For `[Cl-].[Cl-].[Mg+2]` [Magnesium chloride], in the data set on trypsin [1], the “trypsin inhibitory activity, alone, in words” value is “moderate to low levels”; the “Hypothetically calculated additive value of salt and Talc, trypsin inhibition activities (%)” value is reported as 13.30%.
